From US20060010514A1, “Polynucleotides encoding mature AHASL proteins for creating imidazolinone-tolerant plants” (BASF Plant Science GmbH, priority 2004, published 2006)

Tests used:
[1] = tested on: wheat lines with S653(At)N mutation in AHASL1B; experiment: herbicide spray assay, greenhouse-grown mutagenized wheat lines; assay type: in vivo, Triticum aestivum; conditions: 0-9 rating scale (0=no injury; 9=highest injury); after spraying with imazamox; mutation in 1B
Method: (§1) The most common mutation observed in wheat results in a Ser to Asn substitution at the position equivalent to Ser653 in Arabidopsis (termed S653(At)N). Typically, 24 individuals from each mutagenized line were scored on a 0-9 rating scale (0=no injury; 9=highest injury) after spraying with a rate of imazamox sufficient for detecting differences in the greenhouse-grown plants (FIG. 4). For each line, the specific gene mutated was determined. A clear correlation was found between the ratings from herbicide spray assays and the specific homoeolog that was mutated at this position.

[2] = tested on: wheat lines with S653(At)N mutation in AHASL1A; experiment: as above; assay type: in vivo, Triticum aestivum; conditions: 0-9 rating scale (0=no injury; 9=highest injury); after spraying with imazamox; mutation in 1A
Method: as §1

[3] = tested on: wheat lines with S653(At)N mutation in AHASL1D; experiment: as above; assay type: in vivo, Triticum aestivum; conditions: 0-9 rating scale (0=no injury; 9=highest injury), after spraying with imazamox
Method: as §1

[4] = tested on: AHAS of S653(At)N mutant in AHASL1D; experiment: AHAS assay on extracts of S653(At)N mutants; assay type: biochemical, Triticum aestivum
Text: (§2) The deletions, insertions, and substitutions of the protein sequences encompassed herein are not expected to produce radical changes in the characteristics of the protein. However, when it is difficult to predict the exact effect of the substitution, deletion, or insertion in advance of doing so, one skilled in the art will appreciate that the effect will be evaluated by routine screening assays. That is, AHASL function can be evaluated by AHAS enzyme activity assays in the presence and absence of an imidazolinone herbicide. See, for example, Singh et al. ((1988) Anal. Biochem. 171:173-179), herein incorporated by reference.
(§3) To obtain an understanding of the effect of each mutation on the level of enzyme sensitivity to the herbicides, AHAS assays were performed on S653(At)N mutants in all three genes using individuals from several backgrounds (representative data in FIG. 6A). […] Also, a double mutant between 1A and 1D retained 63% of AHAS activity (Pozniak et al. submitted). […] In durum wheat (T. turgidum) each homeolog appears to contribute equally to the AHAS pool (FIG. 6B).

[5] = tested on: AHAS of S653(At)N mutant in AHASL1A; experiment: AHAS assay on extracts of S653(At)N mutants; assay type: biochemical, Triticum aestivum; conditions: 100 μM imazapyr, several backgrounds
Text: as §2, §3

[6] = tested on: AHAS of S653(At)N mutant in AHASL1B; experiment: AHAS assay on extracts of S653(At)N mutants; assay type: biochemical, Triticum aestivum
Text: as §2, §3

[7] = tested on: AHAS of double mutant between 1A and 1D; conditions: herbicide not restated, follows the 100 μM imazethapyr sentence; cited from earlier work

COCc1cnc(C2=NC(C)(C(C)C)C(=O)N2)c(C(=O)O)c1 (stereo not drawn) [imazamox]
median injury [1]: 5.4
median injury [2]: 6.4
median injury [3]: 4.0

CC(C)C1(C)N=C(c2ncccc2C(=O)O)NC1=O (stereo not drawn) [imazapyr]
AHAS activity in the presence of herbicide (level of insensitivity) ([4]; 100 μM imazapyr, AHASL1D S653(At)N mutant, several backgrounds): 38%
AHAS activity in the presence of herbicide [5]: 33%
AHAS activity in the presence of herbicide ([6]; 100 μM imazapyr, AHASL1B S653(At)N mutant, several backgrounds): 25%

CCc1cnc(C2=NC(C)(C(C)C)C(=O)N2)c(C(=O)O)c1 (stereo not drawn) [imazethapyr]
AHAS activity retained [7]: 63%
AHAS activity in the presence of herbicide ([4]; 100 μM imazethapyr, AHAS1D mutant extract, CDC Teal background): 40%
AHAS activity in the presence of herbicide ([6]; 100 μM imazethapyr, AHAS1B mutant extract, CDC Teal background): 30%
